# US9125881B2, “Monoglyceride of acetoacetate and derivatives for the treatment of neurological disorders” (Accera, Inc., priority 2008, dated 2015)
# “Also recorded” adds a separate entry of the source.
# Assays:
# MPTP lesioned mice = assay: Neuroprotective effects in MPTP lesioned mice (mouse model of Parkinson's disease); format: in vivo; settings: for TH+ neuron density in substantia nigra (mean): 8 day ip MPTP, histology on treatment day 11
# Description: To test the possible therapeutic potential of AC-0523 a small pilot experiment was performed examining the potential neuroprotective effects of AC-0523 in a mouse model of Parkinson's disease (PD). 1-methyl-4-phenyl-1,2,3,6-tetrahydropyridine (MPTP), blocks complex I (NADH-ubiquinone oxidoreductase) of the mitochondrial electron transport chain, and causes typical symptoms of (PD) and the loss of dopaminergic neurons.
# Systemic injection of MPTP, upon conversion to MPP+, produces a loss of nigrostriatal dopamine (DA) nerve terminals and eventual death of […] dopaminergic neurons. This neuropathology mimics conditions in the dopamine denervated striatum of human PD patients, and produces […] and postural instability. Assays for tyrosine hydroxylase (TH), the enzyme responsible for catalyzing the production of dopamine, and quantification of TH-containing cells in the SNc are performed to measure the extent of […] dopaminergic neurodegeneration.
# A parallel group design was used. After acclimation in the facility, subjects were tested on the Rotarod and activity tasks. On the second day of test treatment, all subjects began an 8 day ip administration of MPTP or saline. Fifteen minutes before MPTP or saline treatment and 2.75 hours after, subjects received either the test compound or saline. On the first and ninth treatment day blood draws were taken for subsequent monitoring of β-hydroxybutyrate. On treatment day 11 all subjects were euthanized and histology was preformed on a small number of test animals.
# [1] = Mouse pharmacokinetic (PK) study: blood ketone bodies after po and ip dosing; format: in vivo; settings: ICR male mice, single po dose (2.5, 5, 10 ml/kg) or single ip dose (1 g/kg); plasma; as early as 15 minutes
# Description: The inventor examined the blood levels of ketone bodies after oral (po) and intraperitoneal (ip) dosing of monoacetoacetin at different time points in the mouse.
# ICR male mice 6 to 7 weeks old were used. Each mouse weighed between 20-30 grams. Animals were housed 3 per cage and were acclimated for at least 3 days prior to dosing. Mice were given either a single po dose (ranging from 2.5, 5 and 10 ml/kg) of compound, or a single ip dose (1 g/kg). Animals were anesthetized for blood collection at the times 15, 30, 60 and 180 minutes. Whole blood (˜0.4 mls) was collected via cardiac puncture and collected into sodium heparin anticoagulant (Na Heparin, 1:9 ratio). Blood was centrifuged for 8 minutes at 13,000 rpm to isolate plasma. The plasma was transferred into pre-labeled, color-coded eppendorf tubes and frozen at −70° C. […] Plasma levels of beta-hydroxybutyrate (BHB) were determined using a beta-hydroxybutyrate detection kit following manufacturer's directions (StanBio Inc.).
# [2] = MPTP-treated mice, listed as AC-0523
compound,measurement,setting,value
"CC(=O)CC(=O)OCC(O)CO (stereo not drawn) [Monoacetoacetin, 2,3-dihydroxypropyl 3-oxobutanoate]",TH-positive cell counts in the SNc versus MPTP-treated mice who received only saline or AC-1202,MPTP lesioned mice,higher
same,density of TH in the caudate-putamen,MPTP lesioned mice; MPTP-treated mice,highest
same,TH+ neuron density in substantia nigra (mean),"MPTP lesioned mice; MPTP-treated mice, listed as AC0523",111.000
same,TH+ neuron density in substantia nigra (mean),MPTP lesioned mice; [2],111±20
same,protection of tyrosine hydroxylase (TH) expressing cells from MPTP toxicity / neuroprotection,MPTP lesioned mice; [2],protected tyrosine hydroxylase (TH) expressing cells from MPTP toxicity; also recorded: neuroprotective
same,circulating BHB levels,[1],significant increases
